Source: ChEMBL document CHEMBL1201861, “Genomics of Drug Sensitity in Cancer screening data, Wellcome Trust Sanger Institute”

Key:
Assay in all cases: cells
[1] = test system: COLO-792; assay type: functional, cell-based, Homo sapiens; conditions: Homo sapiens, COLO-792
Description: SANGER: Inhibition of human COLO-792 cell growth in a cell viability assay.

[2] = test system: COR-L105; assay type: functional, cell-based, Homo sapiens; conditions: Homo sapiens, COR-L105;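 note: cell growth inhibition determined with a viability assay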
Description: SANGER: Inhibition of human COR-L105 cell growth in a cell viability assay.

[3] = test system: Ca9-22; assay type: functional, cell-based, Homo sapiens; conditions: Homo sapiens, Ca9-22;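 note: growth inhibition of Ca9-22 cells, read out with a cell viability assay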
Description: SANGER: Inhibition of human Ca9-22 cell growth in a cell viability assay.

[4] = test system: CaR-1; assay type: functional, cell-based, Homo sapiens; conditions: Homo sapiens, CaR-1;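 note: growth inhibition of human CaR-1 cancer cells, read out with a cell viability assay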
Description: SANGER: Inhibition of human CaR-1 cell growth in a cell viability assay.

[5] = test system: G-401; assay type: functional, cell-based, Homo sapiens; conditions: Homo sapiens, G-401
Description: SANGER: Inhibition of human G-401 cell growth in a cell viability assay.

[6] = test system: GMS-10; assay type: functional, cell-based, Homo sapiens; conditions: Homo sapiens, GMS-10;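 note: growth inhibition of GMS-10 cells, read out as cell viability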
Description: SANGER: Inhibition of human GMS-10 cell growth in a cell viability assay.

[7] = test system: H4; assay type: functional, cell-based, Homo sapiens; conditions: Homo sapiens, H4
Description: SANGER: Inhibition of human H4 cell growth in a cell viability assay.

[8] = test system: HT1197; assay type: functional, cell-based, Homo sapiens, HT-1197; conditions: Homo sapiens, HT1197
Description: SANGER: Inhibition of human HT-1197 cell growth in a cell viability assay.

[9] = test system: HT-1376; assay type: functional, cell-based, Homo sapiens; conditions: Homo sapiens, HT-1376
Description: SANGER: Inhibition of human HT-1376 cell growth in a cell viability assay.

[10] = test system: HuCCT-1; assay type: functional, cell-based, Homo sapiens, HuCCT1; conditions: Homo sapiens, HuCCT-1;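 note: growth inhibition of HuCCT-1 cells, read out by a cell viability assay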
Description: SANGER: Inhibition of human HuCCT1 cell growth in a cell viability assay.

[11] = test system: KYSE-150 cell line; assay type: functional, cell-based, Homo sapiens; conditions: Homo sapiens, KYSE-150;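 note: growth inhibition of human KYSE-150 cells, read out with a cell viability assay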
Description: SANGER: Inhibition of human KYSE-150 cell growth in a cell viability assay.

[12] = test system: KYSE-180; assay type: functional, cell-based, Homo sapiens; conditions: Homo sapiens, KYSE-180;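 note: growth inhibition of KYSE-180 cells, read out with a cell viability assay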
Description: SANGER: Inhibition of human KYSE-180 cell growth in a cell viability assay.

[13] = test system: KYSE-510; assay type: functional, cell-based, Homo sapiens; conditions: Homo sapiens, KYSE-510;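 note: cell viability readout used to measure how strongly growth of the cell line is suppressed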
Description: SANGER: Inhibition of human KYSE-510 cell growth in a cell viability assay.

[14] = test system: M059J; assay type: functional, cell-based, Homo sapiens; conditions: Homo sapiens, M059J;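 note: growth inhibition of M059J cells, read out with a cell viability assay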
Description: SANGER: Inhibition of human M059J cell growth in a cell viability assay.

[15] = test system: MDA-MB-415; assay type: functional, cell-based, Homo sapiens; conditions: Homo sapiens, MDA-MB-415
[16] = test system: MeWo; assay type: functional, cell-based, Homo sapiens; conditions: Homo sapiens, MeWo;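 note: growth inhibition of MeWo cells, determined by a cell viability readout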
Description: SANGER: Inhibition of human Mewo cell growth in a cell viability assay.

[17] = test system: NCI-H1563; assay type: functional, cell-based, Homo sapiens; conditions: Homo sapiens, NCI-H1563;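 note: growth inhibition of human NCI-H1563 cells, read out with a cell viability assay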
Description: SANGER: Inhibition of human NCI-H1563 cell growth in a cell viability assay.

[18] = test system: NCI-H2030; assay type: functional, cell-based, Homo sapiens; conditions: Homo sapiens, NCI-H2030;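 note: growth inhibition of human NCI-H2030 cells, read out by a cell viability assay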
Description: SANGER: Inhibition of human NCI-H2030 cell growth in a cell viability assay.

[19] = test system: NCI-H2405; assay type: functional, cell-based, Homo sapiens; conditions: Homo sapiens, NCI-H2405;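 note: growth inhibition of the human cell line, read out with a cell viability assay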
Description: SANGER: Inhibition of human NCI-H2405 cell growth in a cell viability assay.

[20] = test system: NCI-H2452; assay type: functional, cell-based, Homo sapiens; conditions: Homo sapiens, NCI-H2452;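 note: growth inhibition of NCI-H2452 cells, read out with a cell viability assay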
Description: SANGER: Inhibition of human NCI-H2452 cell growth in a cell viability assay.

[21] = test system: NCI-H358; assay type: functional, cell-based, Homo sapiens; conditions: Homo sapiens, NCI-H358;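 note: growth inhibition of NCI-H358 human cells, read out with a cell viability assay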
Description: SANGER: Inhibition of human NCI-H358 cell growth in a cell viability assay.

[22] = test system: NCI-H441; assay type: functional, cell-based, Homo sapiens; conditions: Homo sapiens, NCI-H441;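 note: growth inhibition of NCI-H441 cells, read out with a cell viability assay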
Description: SANGER: Inhibition of human NCI-H441 cell growth in a cell viability assay.

[23] = test system: NCI-H727; assay type: functional, cell-based, Homo sapiens; conditions: Homo sapiens, NCI-H727;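 note: growth inhibition of human NCI-H727 cells, read out with a cell viability assay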
Description: SANGER: Inhibition of human NCI-H727 cell growth in a cell viability assay.

[24] = test system: OE33; assay type: functional, cell-based, Homo sapiens; conditions: Homo sapiens, OE33;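 note: growth inhibition of human OE33 cells, measured by a cell viability assay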
Description: SANGER: Inhibition of human OE33 cell growth in a cell viability assay.

[25] = test system: RCM-1; assay type: functional, cell-based, Homo sapiens; conditions: Homo sapiens, RCM-1;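 note: growth inhibition of the RCM-1 line, determined with a cell viability readout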
Description: SANGER: Inhibition of human RCM-1 cell growth in a cell viability assay.

[26] = test system: RD; assay type: functional, cell-based, Homo sapiens; conditions: Homo sapiens, RD
Description: SANGER: Inhibition of human RD cell growth in a cell viability assay.

[27] = test system: RT-112; assay type: functional, cell-based, Homo sapiens; conditions: Homo sapiens, RT-112
Description: SANGER: Inhibition of human RT-112 cell growth in a cell viability assay.

[28] = test system: SCC-4; assay type: functional, cell-based, Homo sapiens; conditions: Homo sapiens, SCC-4;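 note: growth inhibition of human SCC-4 cells, read out as cell viability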
Description: SANGER: Inhibition of human SCC-4 cell growth in a cell viability assay.

[29] = test system: SK-MEL-30; assay type: functional, cell-based, Homo sapiens; conditions: Homo sapiens, SK-MEL-30;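 note: growth inhibition of SK-MEL-30 cells, determined with a cell viability assay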
Description: SANGER: Inhibition of human SK-MEL-30 cell growth in a cell viability assay.

[30] = test system: SW837; assay type: functional, cell-based, Homo sapiens; conditions: Homo sapiens, SW837;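 note: growth inhibition of SW837 cells, determined with a cell viability assay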
Description: SANGER: Inhibition of human SW837 cell growth in a cell viability assay.

[31] = test system: T84; assay type: functional, cell-based, Homo sapiens; conditions: Homo sapiens, T84;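 note: growth inhibition measured with a cell viability readout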
Description: SANGER: Inhibition of human T84 cell growth in a cell viability assay.

[32] = test system: AGS; assay type: functional, cell-based, Homo sapiens; conditions: Homo sapiens, AGS;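 note: growth inhibition of AGS cells, determined with a cell viability assay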
Description: SANGER: Inhibition of human AGS cell growth in a cell viability assay.

[33] = test system: U-118-MG; assay type: functional, cell-based, Homo sapiens; conditions: Homo sapiens, U-118-MG
Description: SANGER: Inhibition of human U-118-MG cell growth in a cell viability assay.

[34] = test system: UMUC3; assay type: functional, cell-based, Homo sapiens; conditions: Homo sapiens, UMUC3;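 note: growth inhibition of human UM-UC-3 cells, read out with a cell viability assay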
Description: SANGER: Inhibition of human UM-UC-3 cell growth in a cell viability assay.

[35] = test system: ZR-75-30; assay type: functional, cell-based, Homo sapiens; conditions: Homo sapiens, ZR-75-30;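 note: growth inhibition of ZR-75-30 cells, measured with a cell viability readout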
Description: SANGER: Inhibition of human ZR-75-30 cell growth in a cell viability assay.

[36] = test system: D-542MG; assay type: functional, cell-based, Homo sapiens; conditions: Homo sapiens, D-542MG
Description: SANGER: Inhibition of human D-542MG cell growth in a cell viability assay.

SMILES | IC50 [1] [nM] | IC50 [2] [nM] | IC50 [3] [nM] | IC50 [4] [nM] | IC50 [5] [nM] | IC50 [6] [nM] | IC50 [7] [nM] | IC50 [8] [nM] | IC50 [9] [nM] | IC50 [10] [nM] | IC50 [11] [nM] | IC50 [12] [nM] | IC50 [13] [nM] | IC50 [14] [nM] | IC50 [16] [nM] | IC50 [17] [nM] | IC50 [19] [nM] | IC50 [20] [nM] | IC50 [22] [nM] | IC50 [23] [nM] | further results
COc1cc2c(Nc3ccc(NC(=O)c4ccccc4)cc3)ncnc2cc1OCCCN1CCOCC1 | > 4000 | > 4000 | 3290 | > 4000 | > 4000 | > 4000 | 1820 | > 4000 | > 4000 | > 4000 | > 4000 | > 4000 | 3640 | > 4000 | > 4000 | > 4000 | > 4000 | > 4000 | > 4000 | > 4000 | IC50 [15]: > 4000 nM; IC50 [18]: > 4000 nM; IC50 [21]: > 4000 nM; IC50 [24]: > 4000 nM; IC50 [25]: > 4000 nM; IC50 [26]: > 4000 nM; IC50 [27]: 2660 nM; IC50 [28]: > 4000 nM; IC50 [29]: > 4000 nM; IC50 [30]: > 4000 nM; IC50 [31]: > 4000 nM; IC50 [32]: > 4000 nM; IC50 [33]: > 4000 nM; IC50 [34]: > 4000 nM; IC50 [35]: > 4000 nM
Cn1cnc2c(F)c(Nc3ccc(Br)cc3Cl)c(C(=O)NOCCO)cc21 [SELUMETINIB] | 1190 | 3130 | 2380 | > 4000 | > 4000 | > 4000 | > 4000 | > 4000 | > 4000 | 1300 | > 4000 | > 4000 | > 4000 | > 4000 | 521 | > 4000 | > 4000 | > 4000 | > 4000 | > 4000 | IC50 [15]: > 4000 nM; IC50 [24]: > 4000 nM; IC50 [25]: 494 nM; IC50 [26]: > 4000 nM; IC50 [27]: 2260 nM; IC50 [28]: > 4000 nM; IC50 [29]: 782 nM; IC50 [31]: > 4000 nM; IC50 [32]: 1120 nM; IC50 [33]: > 4000 nM; IC50 [35]: > 4000 nM
CC(C)c1ccccc1Cc1cc(C(=O)Nc2ccc(S(=O)(=O)c3ccccc3C(C)(C)C)cc2)c(O)c(O)c1O | 247 | 711 | 3.82 | 5930 | 460 | 443 | 408 | 5950 | 1900 | 348 | 465 | 185 | 222 | 1300 | 484 | 124 | 675 | 754 | 1730 | 941 | IC50 [36]: 462 nM; IC50 [18]: 2810 nM; IC50 [21]: 1490 nM; IC50 [24]: 695 nM; IC50 [25]: 3390 nM; IC50 [26]: 960 nM; IC50 [27]: 535 nM; IC50 [28]: 1300 nM; IC50 [29]: 38 nM; IC50 [30]: 2390 nM; IC50 [31]: 13900 nM; IC50 [32]: 37.5 nM; IC50 [33]: 190 nM; IC50 [34]: 163 nM; IC50 [35]: 1420 nM
CC1(C)CNc2cc(NC(=O)c3cccnc3NCc3ccncc3)ccc21 [MOTESANIB] | > 2000 | > 2000 | > 2000 | > 2000 | > 2000 | > 2000 | > 2000 | > 2000 | > 2000 | > 2000 | > 2000 | > 2000 | > 2000 | > 2000 | > 2000 | > 2000 | > 2000 | > 2000 | > 2000 | > 2000 | IC50 [15]: > 2000 nM; IC50 [18]: > 2000 nM; IC50 [21]: > 2000 nM; IC50 [24]: > 2000 nM; IC50 [25]: > 2000 nM; IC50 [26]: > 2000 nM; IC50 [27]: 1590 nM; IC50 [28]: > 2000 nM; IC50 [29]: > 2000 nM; IC50 [30]: > 2000 nM; IC50 [31]: > 2000 nM; IC50 [32]: > 2000 nM; IC50 [33]: > 2000 nM; IC50 [34]: > 2000 nM; IC50 [35]: > 2000 nM
